In patent US9062026B2, “Fused pyrimidines and substituted quinazolines as inhibitors of p97” (Cleave Biosciences, Inc., priority 2012, dated 2015):
Where two headings read alike, the source gives them in different places.

What was measured:
[1] = target: p97 (Homo sapiens (Human), UniProt P55072); test: P97 ATPase biochem assay (ADP Glo); type: biochemical
Protocol: The ATPase assay is performed according the following protocol: Purified enzyme (20 nM p97), substrate (20 μM ATP) and a dose titration of compounds are mixed in buffer (50 mM TRIS pH 7.5, 20 mM MgCl2, 0.02% TX-100, 1 mM DTT, 0.2% (v/v) glycerol) and incubated at 37° C. for 15 minutes. The reaction is terminated and the level of product generated is measured using the ADP Glo Assay Kit (Promega, Madison Wis.). Plotting product generated versus compound concentration and using a four-parameter fit model generates an IC50 value for each compounds.

[2] = system: A549 K48; test: A549 K48 cell intensity (lysine-48 poly-ubiquitin accumulation, immunofluorescence); type: cell-based; details: Homo sapiens
Protocol: Image-analysis is used to generate quantitative data from these assays that can be fit to a four-parameter sigmoid curve to derive IC50 values. Substrates of the ubiquitin-proteasome system, such as p53, are monitored after tumor cell lines are incubated with compounds for several hours. Accumulation of these proteins indicates an inhibition of proteasome-mediated degradation. Accumulation of lysine-48 chain linkage of poly-ubiquitin is also monitored by immunofluorescence as an indicator of ubiquitin-proteasome system inhibition. Both LC3 and SQSTM1 are mediators of autophagy. The localization and amounts of these proteins are monitored by immunofluorescence and report on the activity and inhibition of autophagy in response to p97 inhibition.

[3] = 20 nM p97, 20 μM ATP, 37° C., 15 minutes, read-out: p97 biochem IC50

Chain of p97 (P55072 whole entry): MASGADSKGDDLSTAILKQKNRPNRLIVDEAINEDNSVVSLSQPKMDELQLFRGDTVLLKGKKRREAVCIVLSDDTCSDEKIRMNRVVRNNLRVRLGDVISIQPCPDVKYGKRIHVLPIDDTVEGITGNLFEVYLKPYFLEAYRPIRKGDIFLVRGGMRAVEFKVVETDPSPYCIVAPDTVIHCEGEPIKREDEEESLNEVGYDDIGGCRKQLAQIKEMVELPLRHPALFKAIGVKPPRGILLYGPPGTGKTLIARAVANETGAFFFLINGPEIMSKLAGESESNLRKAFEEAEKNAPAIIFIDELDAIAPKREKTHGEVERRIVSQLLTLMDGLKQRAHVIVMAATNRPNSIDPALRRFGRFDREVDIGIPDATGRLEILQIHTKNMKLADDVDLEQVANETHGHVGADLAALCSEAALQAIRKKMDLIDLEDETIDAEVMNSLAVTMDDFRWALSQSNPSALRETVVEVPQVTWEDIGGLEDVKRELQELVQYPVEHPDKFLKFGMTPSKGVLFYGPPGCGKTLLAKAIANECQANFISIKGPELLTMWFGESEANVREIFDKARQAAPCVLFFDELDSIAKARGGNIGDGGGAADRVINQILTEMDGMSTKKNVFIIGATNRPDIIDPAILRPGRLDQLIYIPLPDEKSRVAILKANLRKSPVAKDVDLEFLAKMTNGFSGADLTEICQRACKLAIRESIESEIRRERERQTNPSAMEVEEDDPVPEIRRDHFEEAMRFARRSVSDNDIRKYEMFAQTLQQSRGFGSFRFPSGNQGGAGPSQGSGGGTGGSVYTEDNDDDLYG

Row | SMILES | IC50 ([1]; read-out: p97 IC50) [nM] | IC50 [2] [nM] | IC50 [1, 3] [nM]
1 | COc1cc2c(C#N)cccc2n1-c1nc2c(c(NCc3ccccc3)n1)CCCC2 [1-[4-(benzylamino)-5,6,7,8-tetrahydroquinazolin-2-yl]-2-methoxy-1H-indole-4-carbonitrile] | < 100 | < 10000 | –
2 | Cc1nc2c(C#N)cccc2n1-c1nc2c(c(NCc3ccccc3)n1)CCCC2 [1-[4-(benzylamino)-5,6,7,8-tetrahydroquinazolin-2-yl]-2-methyl-1H-1,3-benzodiazole-4-carbonitrile] | < 100 | < 10000 | –
3 | Cc1cc2c(C(N)=O)cccc2n1-c1nc2c(c(NCc3ccccc3)n1)CNCC2 [1-[4-(benzylamino)-5H,6H,7H,8H-pyrido[4,3-d]pyrimidin-2-yl]-2-methyl-1H-indole-4-carboxamide] | < 100 | < 10000 | –
4 | COc1cc2c(C#N)cccc2n1-c1nc2c(c(NCc3ccccc3)n1)COCC2 [1-[4-(benzylamino)-5H,7H,8H-pyrano[4,3-d]pyrimidin-2-yl]-2-methoxy-1H-indole-4-carbonitrile] | < 100 | < 10000 | –
5 | COc1cc2c(C(N)=O)cccc2n1-c1nc2c(c(NCc3ccccc3)n1)COCC2 [1-[4-(benzylamino)-5H,7H,8H-pyrano[4,3-d]pyrimidin-2-yl]-2-methoxy-1H-indole-4-carboxamide] | < 30 | < 10000 | –
6 | Cc1cc2c(C(N)=O)cccc2n1-c1nc2c(c(NCc3ccccc3)n1)COCC2 [1-[4-(benzylamino)-5H,7H,8H-pyrano[4,3-d]pyrimidin-2-yl]-2-methyl-1H-indole-4-carboxamide] | – | < 10000 | –
7 | Cc1cc2c(C#N)cccc2n1-c1nc2c(c(NCc3ccccc3)n1)CN(C)CC2 [1-[4-(benzylamino)-6-methyl-5H,6H,7H,8H-pyrido[4,3-d]pyrimidin-2-yl]-2-methyl-1H-indole-4-carbonitrile] | < 100 | < 10000 | –
8 | COc1cccc2c(NCc3ccccc3)nc(-n3c(C(C)N)cc4ccccc43)nc12 (stereo not shown) [2-[2-(1-aminoethyl)-1H-indol-1-yl]-N-benzyl-8-methoxyquinazolin-4-amine] | < 300 | < 10000 | –
9 | NCc1cc2ccccc2n1-c1nc2c(c(NCc3ccccc3)n1)CCCC2 [2-[2-(aminomethyl)-1H-indol-1-yl]-N-benzyl-5,6,7,8-tetrahydroquinazolin-4-amine] | < 300 | < 10000 | –
10 | NC(=O)NCc1cc2ccccc2n1-c1nc2c(c(NCc3ccccc3)n1)CCCC2 [({1-[4-(benzylamino)-5,6,7,8-tetrahydroquinazolin-2-yl]-1H-indol-2-yl}methyl)urea] | < 100 | < 10000 | –
11 | CC(=O)NCc1cc2ccccc2n1-c1nc2c(c(NCc3ccccc3)n1)CCCC2 [N-({1-[4-(benzylamino)-5,6,7,8-tetrahydroquinazolin-2-yl]-1H-indol-2-yl}methyl)acetamide] | < 100 | < 10000 | –
12 | CS(=O)(=O)NCc1cc2ccccc2n1-c1nc2c(c(NCc3ccccc3)n1)CCCC2 [N-({1-[4-(benzylamino)-5,6,7,8-tetrahydroquinazolin-2-yl]-1H-indol-2-yl}methyl)methanesulfonamide] | < 300 | < 10000 | –
13 | Clc1cc2ccccc2n1-c1nc2c(c(NCc3ccccc3)n1)CCCC2 [N-benzyl-2-(2-chloro-1H-indol-1-yl)-5,6,7,8-tetrahydroquinazolin-4-amine] | < 100 | < 10000 | –
14 | CCOc1cc2ccccc2n1-c1nc2c(c(NCc3ccccc3)n1)CCCC2 [N-benzyl-2-(2-ethoxy-1H-indol-1-yl)-5,6,7,8-tetrahydroquinazolin-4-amine] | < 100 | < 10000 | –
15 | COCCOc1cccc2c(NCc3ccccc3)nc(-n3c(OC)nc4ccccc43)nc12 [N-benzyl-2-(2-methoxy-1H-1,3-benzodiazol-1-yl)-8-(2-methoxyethoxy)quinazolin-4-amine] | < 300 | < 10000 | –
16 | COc1cc2ccccc2n1-c1nc2c(c(NCc3ccccc3)n1)CCCC2 [N-benzyl-2-(2-methoxy-1H-indol-1-yl)-5,6,7,8-tetrahydroquinazolin-4-amine] | < 30 | < 10000 | –
17 | COc1cc2ccccc2n1-c1nc2c(c(NCc3ccccc3)n1)COCC2 [N-benzyl-2-(2-methoxy-1H-indol-1-yl)-5H,7H,8H-pyrano[4,3-d]pyrimidin-4-amine] | < 300 | < 10000 | –
18 | COc1cccc2c(NCc3ccccc3)nc(-n3c(/C=C/S(C)(=O)=O)cc4ccccc43)nc12 [N-benzyl-2-{2-[(E)-2-methanesulfonylethenyl]-1H-indol-1-yl}-8-methoxyquinazolin-4-amine] | < 300 | < 10000 | –
19 | CN(C)Cc1cc2ccccc2n1-c1nc2c(c(NCc3ccccc3)n1)CCCC2 [N-benzyl-2-{2-[(dimethylamino)methyl]-1H-indol-1-yl}-5,6,7,8-tetrahydroquinazolin-4-amine] | < 300 | < 10000 | –

Row | SMILES | IC50 ([1]; read-out: p97 IC50) [nM] | IC50 [2] [nM] | IC50 [1, 3] [nM]
20 | COCCOc1cccc2c(NCc3ccccc3)nc(-n3c(C)cc4ccccc43)nc12 [N-benzyl-8-(2-methoxyethoxy)-2-(2-methyl-1H-indol-1-yl)quinazolin-4-amine] | < 100 | < 10000 | –
21 | COc1cccc2c(NCc3ccccc3)nc(-n3c(OC)cc4ccccc43)nc12 [N-benzyl-8-methoxy-2-(2-methoxy-1H-indol-1-yl)quinazolin-4-amine] | < 100 | < 10000 | –
22 | COc1cccc2c(NCc3ccccc3)nc(-n3c(CNC(C)=O)cc4ccccc43)nc12 [drawing 223] | – | – | < 2000
23 | COc1cc2ccccc2n1-c1nc2c(c(NCc3ccccc3)n1)CCCC2 [drawing 226] | – | – | < 2000
24 | OCc1cc2ccccc2n1-c1nc2c(c(NCc3ccccc3)n1)CCCC2 [drawing 227] | – | – | < 2000
25 | CN(C)Cc1cc2ccccc2n1-c1nc2c(c(NCc3ccccc3)n1)CCCC2 [drawing 229] | – | – | < 2000
26 | CC(=O)NCc1cc2ccccc2n1-c1nc2c(c(NCc3ccccc3)n1)CCCC2 [drawing 230] | – | – | < 2000
27 | NC(=O)NCc1cc2ccccc2n1-c1nc2c(c(NCc3ccccc3)n1)CCCC2 [drawing 231] | – | – | < 2000
28 | COC(=O)NCc1cc2ccccc2n1-c1nc2c(c(NCc3ccccc3)n1)CCCC2 [drawing 232] | – | – | < 2000
29 | CS(=O)(=O)NCc1cc2ccccc2n1-c1nc2c(c(NCc3ccccc3)n1)CCCC2 [drawing 233] | – | – | < 2000
30 | COc1cccc2c(NCc3ccccc3)nc(-n3c(/C=C/C#N)cc4ccccc43)nc12 [drawing 242] | – | – | < 2000
31 | COc1cccc2c(NCc3ccccc3)nc(-n3c(/C=C(/C#N)C(N)=O)cc4ccccc43)nc12 [drawing 243] | – | – | < 2000
32 | COc1cccc2c(NCc3ccccc3)nc(-n3c(/C=C/S(C)(=O)=O)cc4ccccc43)nc12 [drawing 244] | – | – | < 2000
33 | COC(=O)NCc1cc2ccccc2n1-c1nc2c(c(NCc3ccccc3)n1)CCCC2 [methyl N-({1-[4-(benzylamino)-5,6,7,8-tetrahydroquinazolin-2-yl]-1H-indol-2-yl}methyl)carbamate] | < 300 | < 10000 | –
34 | COCCOc1cccc2c(NCc3ccccc3)nc(-n3c(CNC(=O)OC)cc4ccccc43)nc12 [methyl N-({1-[4-(benzylamino)-8-(2-methoxyethoxy)quinazolin-2-yl]-1H-indol-2-yl}methyl)carbamate] | < 300 | – | –
35 | OCc1nc2ccccc2n1-c1nc2c(c(NCc3ccccc3)n1)CCCC2 [{1-[4-(benzylamino)-5,6,7,8-tetrahydroquinazolin-2-yl]-1H-1,3-benzodiazol-2-yl}methanol] | < 300 | – | –
36 | OCc1cc2ccccc2n1-c1nc2c(c(NCc3ccccc3)n1)CCCC2 [{1-[4-(benzylamino)-5,6,7,8-tetrahydroquinazolin-2-yl]-1H-indol-2-yl}methanol] | < 100 | < 10000 | –
37 | COCCOc1cccc2c(NCc3ccccc3)nc(-n3c(CO)nc4ccccc43)nc12 [{1-[4-(benzylamino)-8-(2-methoxyethoxy)quinazolin-2-yl]-1H-1,3-benzodiazol-2-yl}methanol] | < 300 | – | –
38 | COCCOc1cccc2c(NCc3ccccc3)nc(-n3c(CO)cc4ccccc43)nc12 [{1-[4-(benzylamino)-8-(2-methoxyethoxy)quinazolin-2-yl]-1H-indol-2-yl}methanol] | < 100 | < 10000 | –
